Experimental findings from patent US8158621B2, “Methods of treating or preventing autoimmune diseases with 2,4-pyrimidinediamine compounds” (Rigel Pharmaceuticals, Inc., priority 2002, dated 2012) are described below.

The first assay has as its system Human Jurkat T-cells (clone N). The assay is described as follows: Jurkat T-cell activation (anti-TCR, CD69 upregulation). In kind it is cell-based.
Settings: not given
In a few lines: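 Jurkat cells in RPMI + 5% FBS preincubated with compound 1 h at 37 °C, then stimulated with anti-TCR C305 at 500 ng/ml for 20 h. CD69 surface expression stained with anti-CD69-APC and read by flow cytometry; IC50 versus solvent-only control.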
For orientation: IC50 means the concentration that gives 50% inhibition. Higher therefore signals a need for much substance. In turn, `CNC(=O)COc1cccc(Nc2ncc(F)c(Nc3ccc(O)cc3)n2)c1` [Compound R950347] came in with an IC50 of 2.7 µM.

As to `CC(=O)Nc1cccc(N(C(C)=O)c2ncc(F)c(N(C(C)=O)c3cccc(N(C(C)=O)C(C)=O)c3)n2)c1` [Compound R950245], the IC50 was more than 10 µM.

For the compound `CN(C)C(=O)c1cc2cc(Nc3ncc(F)c(Nc4cccc(O)c4)n3)ccc2o1` [Compound R926718], it took 12.4 µM to reach half-maximal inhibition (IC50).

Compound `CC(C)(CO)c1ccc(Nc2ncc(F)c(Nc3cccc(O)c3)n2)cc1` [Compound R935171] gave an IC50 of 3.93 µM.

The compound `CCOC(=O)c1cnc(N[C@@H](Cc2ccccc2)C(=O)OCC)nc1N[C@@H](Cc1ccccc1)C(=O)OCC` [Compound R926526] gave an IC50 of more than 10 µM.

In turn, `CC(O)CNC(=O)COc1cccc(Nc2ncc(F)c(Nc3ccc4c(c3)NCCO4)n2)c1` (centres unmarked) [Compound R909251] showed an IC50 of 0.664 µM.

`CNC(=O)COc1cccc(Nc2ncc(F)c(Nc3ccc4c(c3)N(C)CCO4)n2)c1` [Compound R909259]: the 50% inhibitory concentration (IC50) is more than 10 µM.

Compound `Cn1nnc(COc2ccc(Nc3nccc(Nc4cccc(O)c4)n3)cc2)n1` [Compound R920910] showed an IC50 of 2.38 µM.

`CNCc1cccc(Nc2nc(Nc3cccc(OCC(=O)NC)c3)ncc2F)c1` [Compound R940317] showed an IC50 of 3.28 µM.

For `O=C(COc1ccc(Nc2nc(Nc3cccc(O)c3)ncc2Br)cc1)NCC1CC1` [Compound R925842], the IC50 was more than 10 µM.

The compound `CC(C)(C)c1ccc(Nc2nc(Nc3cccc(OCCO)c3)ncc2F)cc1` [Compound R926728] showed an IC50 of more than 10 µM.

In the case of `CCOC(=O)COc1cccc(Nc2ncc(F)c(Nc3cc(OC)cc(OC)c3)n2)c1` [Compound R926795], the half-maximal inhibitory concentration (IC50) is more than 10 µM.

With `O=C(CNc1cccc(Nc2ncc(F)c(Nc3cccc(NCCO)c3)n2)c1)NCCNCc1ccccc1` [Compound R950235], the IC50 turned out to be 6.26 µM.

Compound `Cn1nnnc1COc1ccc(Nc2ncc(F)c(Nc3ccc(OCc4nnnn4C)cc3)n2)cc1` [Compound R945048] returned an IC50 of 2.23 µM.

`CCNC(=O)Oc1cccc(Nc2nc(Nc3cccc(OCC(=O)NC)c3)ncc2F)c1` [Compound R926919] showed a 50% inhibitory concentration (IC50) of more than 10 µM.

For `COC(=O)COc1ccc(Nc2ncc(F)c(Nc3ccc(OCC#N)cc3)n2)cc1` [Compound R945053], half-maximal inhibition (IC50) required 2.67 µM.

On to `CCOC(=O)C(C)(C)c1ccc(Nc2ncc(F)c(Nc3cccc(O)c3)n2)cc1` [Compound R935152], for which the IC50 came out at 19.9 µM.

`CNC(=O)COc1cccc(Nc2ncc(F)c(Nc3ccc(OC)c(CO)c3)n2)c1` [Compound R950386] came in with a 50% inhibitory concentration (IC50) of 11.4 µM.

`CC(C)(CO)c1ccc(Nc2nc(Nc3ccc4c(c3)OCCO4)ncc2F)cc1` [Compound R935173]: inhibition was half-maximal at 3.91 µM (IC50).

For `CC1(C)Oc2ccc(Nc3nc(Nc4cccc(O)c4)ncc3F)cc2NC1=O` [Compound R940346], the half-maximal inhibitory concentration (IC50) was 2.09 µM.

In turn, `CNC(=O)COc1cccc(Nc2ncc(F)c(Nc3ccc(C)c(Cl)c3)n2)c1` [Compound R926839] yielded an IC50 of 2.48 µM.

Compound `COC(=O)c1cc2ccc(Nc3ncc(F)c(Nc4cccc(O)c4)n3)cc2[nH]1` [Compound R926903] displayed an IC50 of more than 10 µM.

Turning to `CCOC(=O)COc1ccc(Nc2ncc(F)c(Nc3ccc4c(c3)OCCO4)n2)cc1` [Compound R925747], the IC50 is more than 10 µM.

Compound `Cn1cc2cc(Nc3ncc(F)c(Nc4ccc5c(c4)OCCO5)n3)ccc2n1` [Compound R935300] yielded an IC50 of 3.38 µM. This lies in the single-digit micromolar range.

`O=C(COc1cccc(Nc2ncc(F)c(Nc3ccc4c(c3)OCCO4)n2)c1)N1CCNCC1` [Compound R926504] had an IC50 of 1.78 µM. This IC50 lies about 1.9-fold lower than the previous one.

In turn, `Oc1cccc(Nc2nc(Nc3ccc4cn[nH]c4c3)ncc2F)c1` [Compound R935191] registered an IC50 of 2.94 µM. This IC50 lies about 1.7-fold higher than the previous one.

Compound `CNC(=O)CNc1cccc(Nc2ncc(F)c(Nc3ccc4c(c3)OCCO4)n2)c1` [Compound R950191] displayed an IC50 of 2.59 µM.

For `Fc1cnc(Nc2ccc3c(c2)OCCO3)nc1Nc1ccc(OCCN2CCOCC2)cc1` [Compound R926711], the IC50 was 3.79 µM.

Turning to `CNC(=O)COc1cccc(Nc2ncc(F)c(Nc3ccc4c(c3)C(=O)CCC4)n2)c1` [Compound R926947], inhibition was half-maximal at 13.3 µM (IC50).

For the compound `OCCCn1ncc2cc(Nc3ncc(F)c(Nc4cccc(O)c4)n3)ccc21` [Compound R935304], the IC50 was found to be 0.497 µM.

`CNC(=O)COc1cccc(Nc2ncc(F)c(Nc3ccc4c(c3)OCC(=O)N4)n2)c1` [Compound R908700] displayed an IC50 of 13.7 µM.

`CNC(=O)COc1cccc(Nc2ncc(F)c(Nc3ccc(OC)nc3)n2)c1` [Compound R926886] gave an IC50 of 1.14 µM.

The compound `CNCCNC(=O)c1cc2cc(Nc3ncc(F)c(Nc4ccc5oc(C(=O)NCCNC)cc5c4)n3)ccc2o1` [Compound R950170] returned an IC50 of more than 10 µM.

In the case of `CC(C)c1cccc(Nc2nc(Nc3cccc(OCCO)c3)ncc2F)c1` [Compound R940289], the half-maximal inhibitory concentration (IC50) was 3.65 µM.

With `COC(=O)Cn1ncc2cc(Nc3ncc(F)c(Nc4ccc5c(c4)OCCO5)n3)ccc21` [Compound R935223], the IC50 was found to be 4.57 µM.

Regarding `Oc1cccc(Nc2nc(Nc3ccc4oc(CN5CCNCC5)cc4c3)ncc2F)c1` [Compound R926770], inhibition was half-maximal at 0.891 µM (IC50).

In turn, `CC1(C)COC(COc2ccc(Nc3ncc(F)c(Nc4cccc(O)c4)n3)cc2)=N1` [Compound R926702] had a concentration for half-maximal inhibition (IC50) of 18.6 µM.

As for `CNC(=O)COc1ccc(Nc2ncc(F)c(Nc3ccc4c(cnn4C)c3)n2)cc1` [Compound R935216], the IC50 stood at 3.48 µM. This IC50 is about 5.3-fold lower than that of the compound before.

The compound `CCOC(=O)C(C)(C)c1ccc(Nc2nc(Nc3ccc(OCC(=O)OC)cc3)ncc2F)cc1` [Compound R935157] displayed an IC50 of more than 10 µM.

For the compound `O=C(COc1cccc(Nc2ncc(F)c(Nc3ccc4c(c3)OCCO4)n2)c1)N(CCO)CCO` [Compound R926781], the half-inhibitory concentration (IC50) amounted to 9.81 µM.

In the case of `O=C(O)COc1ccc(Nc2ncc(F)c(Nc3ccc(OCC(=O)O)cc3)n2)cc1` [Compound R926560], the IC50 is more than 10 µM.

`Cn1cc2cc(Nc3ncc(F)c(Nc4cccc(O)c4)n3)ccc2n1` [Compound R935299] returned an IC50 of 0.824 µM.

With `CNC(=O)COc1cccc(Nc2ncc(F)c(Nc3ccc4c(c3)NCCO4)n2)c1` [Compound R920395], it took 0.726 µM to reach half-maximal inhibition (IC50).

In the case of `O=C(c1cc2cc(Nc3ncc(F)c(Nc4ccc5oc(C(=O)N6CCOCC6)cc5c4)n3)ccc2o1)N1CCOCC1` [Compound R950172], the IC50 was 23.1 µM.

Staying with this assay, now noted: Homo sapiens.
For the compound `Nc1cc(Nc2ncc(F)c(Nc3ccc([N+](=O)[O-])c(N)c3)n2)ccc1[N+](=O)[O-]` [Compound R950135], the IC50 is more than 10 µM.

The compound `CCNC(=O)Oc1cccc(Nc2ncc(F)c(Nc3cccc(O)c3)n2)c1` [Compound R926928] returned a half-maximal inhibitory concentration (IC50) of more than 10 µM.

Still in this assay, the particulars now being: Homo sapiens, Jurkat.
With `COC(=O)c1ccc(Nc2ncc(F)c(Nc3ccc(C(=O)OC)cc3)n2)cc1` [Compound R945034], the 50% inhibitory concentration (IC50) is more than 10 µM.

The compound `Oc1ccc(-c2cnc(Nc3ccc4c(c3)OCCO4)nc2Nc2ccc3c(c2)OCCO3)cc1` [Compound R925816] gave an IC50 of 4.66 µM.

Compound `Fc1ccc(Nc2ncc(F)c(Nc3ccc(F)c(Cl)c3)n2)cc1Cl` [Compound R926223] yielded an IC50 of more than 10 µM.

Take `CNC(=O)c1cc(Nc2nc(NC)ncc2F)ccc1OC` [Compound R940304]: the IC50 was more than 10 µM.

Turning to `CCOC(=O)C(Nc1ncc(C#N)c(NC(C(=O)OCC)C(C)C)n1)C(C)C` (centres unmarked) [Compound R925814], the IC50 was determined as 14.2 µM.

As for `Fc1cnc(NCc2ccccc2)nc1NCc1ccccc1` [Compound R925772], the IC50 is more than 10 µM.

In turn, `Brc1cnc(Nc2ccc3c(c2)OCCO3)nc1Nc1ccc2c(c1)OCCO2` [Compound R925771] displayed an IC50 of 7.19 µM.

Take `CCOc1ccc(Nc2cc(C(=O)OC)nc(Nc3ccc(OCC)cc3)n2)cc1` [Compound R926058]: the IC50 is more than 10 µM.

In the case of `N#Cc1cccc(Nc2ncc(F)c(Nc3cccc(C#N)c3)n2)c1` [Compound R945051], the IC50 was more than 10 µM.

Take `Nc1cc(Nc2ccnc(Nc3ccc(Nc4ccccc4)c(N)c3)n2)ccc1Nc1ccccc1` [Compound R950123]: the IC50 is more than 10 µM.

The compound `O=C(O)c1ccc(Nc2ncc(F)c(Nc3ccc(C(=O)O)c(O)c3)n2)cc1O` [Compound R945061] displayed a concentration for half-maximal inhibition (IC50) of more than 10 µM.

`Nc1cc(Nc2ncc(F)c(Nc3ccc(F)c(N)c3)n2)ccc1F` [Compound R950159] came in with an IC50 of 8.45 µM.

The compound `Oc1ccc(CCNc2ccnc(NCCc3ccc(O)cc3)n2)cc1` [Compound R925790] registered a half-inhibitory concentration (IC50) of 17 µM.

In turn, `CC(Nc1nc(Nc2cccc(O)c2)ncc1F)c1ccc(F)cc1` (racemic) [Compound R935021] yielded a half-inhibitory concentration (IC50) of more than 10 µM.

For `Nc1cccc(Nc2ccnc(Nc3cccc(N)c3)n2)c1` [Compound R950109], the IC50 was found to be 12.8 µM.

`COC(=O)c1cc(Nc2ncc(F)c(Nc3cccc(O)c3)n2)cc(C(F)(F)F)c1` [Compound R926863]: the IC50 is more than 10 µM.

Compound `CCOC(=O)c1cc2cccc(Nc3ncc(F)c(Nc4cc(OC)cc(OC)c4)n3)c2[nH]1` [Compound R926803] showed an IC50 of more than 10 µM.

`CCOc1ccc(Nc2ncc(F)c(Nc3ccc(OCC)cc3)n2)cc1` [Compound R070790, N2,N4-bis(4-ethoxyphenyl)-5-fluoro-2,4-pyrimidinediamine] returned an IC50 of more than 10 µM.

`Oc1cccc(Nc2nc(NCc3ccccn3)ncc2F)c1` [Compound R945166] came in with an IC50 of more than 10 µM.

In the case of `Oc1ccc(Nc2ncc(F)c(Nc3ccc(O)c(Cl)c3)n2)cc1Cl` [Compound R926675], inhibition was half-maximal at 2.37 µM (IC50).

`COc1cc(Nc2nc(Nc3cccc(O)c3)ncc2F)cc(OC)c1` [Compound R926802] yielded an IC50 of 5.91 µM.

Take `Fc1cnc(Nc2cccc(Cl)c2)nc1Nc1cccc(Cl)c1` [Compound R926209]: the IC50 was more than 10 µM.

With `Brc1cnc(Nc2ccccc2-c2ccccc2)nc1Nc1ccccc1-c1ccccc1` [Compound R925798], the IC50 is more than 10 µM.

Turning to `Cc1c(O)cccc1Nc1ncc(F)c(Nc2cccc(O)c2C)n1` [Compound R945038], the IC50 is more than 10 µM.

`Fc1cnc(Nc2ccc(Cl)cc2)nc1Nc1ccc(Cl)cc1` [Compound R926206] registered an IC50 of more than 10 µM.
